Consider seven compounds from patent US10064848B2, “Pyridic ketone derivatives, method of preparing same, and pharmaceutical application thereof” (Shanghai Hengrui Pharmaceutical Co., Ltd., priority 2013, dated 2018).

Test [1] concerns the target T1, CYP1A2 (Homo sapiens, UniProt P05177).
T1 construct: from tissue; host or cells: human liver microsomes
T1 sequence (P05177 1-516): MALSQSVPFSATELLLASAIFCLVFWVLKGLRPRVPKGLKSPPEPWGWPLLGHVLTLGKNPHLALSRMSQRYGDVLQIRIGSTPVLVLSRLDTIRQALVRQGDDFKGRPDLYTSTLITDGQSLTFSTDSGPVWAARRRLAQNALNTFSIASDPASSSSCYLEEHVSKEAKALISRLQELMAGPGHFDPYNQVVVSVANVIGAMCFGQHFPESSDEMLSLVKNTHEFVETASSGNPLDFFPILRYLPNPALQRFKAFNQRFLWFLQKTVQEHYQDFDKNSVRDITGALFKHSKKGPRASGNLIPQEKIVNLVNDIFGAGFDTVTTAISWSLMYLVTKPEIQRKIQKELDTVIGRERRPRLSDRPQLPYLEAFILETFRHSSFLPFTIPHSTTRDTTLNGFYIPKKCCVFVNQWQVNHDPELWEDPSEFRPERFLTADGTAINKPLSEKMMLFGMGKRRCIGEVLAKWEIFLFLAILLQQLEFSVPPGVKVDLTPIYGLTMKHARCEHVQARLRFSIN
As to the kind of experiment: In vitro CYP enzyme inhibition, human liver microsomes. The test is classed as in vitro ADME. Conditions: probe Phenacetin, single point method. As for the experimental part: (§1) Human liver microsome incubation system was used to reflect the activity of enzymes based on the amount of metabolites produced. Enzyme inhibition of the test compounds was investigated on CYP1A2, CYP2C9, […], CYP3A4m, CYP3A4t and CYP2C19, and IC50 values (a concentration of the test compound that is required for 50% inhibition of enzyme activity) were measured. […] The appropriate amount of test compound standard sample was weighed, and diluted with DMSO to 50 mM to obtain stock solution I. The stock solution I was diluted with PBS to 100 μM to obtain the reaction liquid which is to be used in incubation. [table] The reaction mixture was prepared: 60 μL [table] The above mixture was preincubated for 5 minutes at 37° C., followed by addition of 40 μL of NADPH (2.5 mM, PBS formulation). The mixture solution was incubated for 20 minutes at 37° C. All incubated samples were set to double samples. 300 μL ice-cold acetonitrile was added to terminate the reaction. The reaction solution was added with 100 μl internal standard, mixed uniformly, and centrifuged for 10 minutes at 3500 rpm. The supernatant was transferred to the LC-MS/MS analysis. The activity of enzymes was reflected by the production amount of metabolites. Using a single point method, the formula was calculated as follows: According to the known literature: IC50>10 μM belongs to weaker inhibition, 1 μM<IC50<10 μM belong to moderate inhibition, IC50<1 μM belong to strong inhibition.
On the technique in general: Microsomes from liver hold many membrane-bound enzymes, among them those of drug oxidation.

In test [2] the target is T2, CYP3A4m (Homo sapiens, UniProt P08684).
T2 construct: from tissue; host or cells: human liver microsomes
Described as above. Conditions: probe Midazolam, single point method. The class given is in vitro ADME. The method, then:
as §1

The target of test [3] is T3, CYP2C19 (Homo sapiens, UniProt P33261).
T3 construct: from tissue; host or cells: human liver microsomes
The description is as above. The test is classed as in vitro ADME. Conditions: probe (S)-Mephenytoin, single point method. The method, then:
as §1

Test [4] addresses T4, CYP3A4t (Homo sapiens, UniProt P08684).
T4 construct: from tissue; host or cells: human liver microsomes
The description is as above. The test is classed as in vitro ADME. Conditions: probe Testosterone, single point method. As for the experimental part:
as §1

Test [5] deals with CYP2C6 (Homo sapiens, UniProt P10635). The test is described as above. The test is classed as in vitro ADME. Conditions: single point method. The method, then:
as §1

The target of test [6] is T5, CYP2C9 (Homo sapiens, UniProt P11712).
T5 construct: from tissue; host or cells: human liver microsomes
The test is described as above. The test is classed as in vitro ADME. Conditions: probe Diclofenac, single point method. The method, then: as §1

Test [7] addresses T6, MEK1 (Recombinant Human Protein) (Homo sapiens, UniProt Q02750).
T6 construct: purchased Invitrogen PV3093
As to the kind of experiment: MEK1 kinase inhibition assay (Z'-LYTE Kinase Assay Kit-Ser/Thr 03 Peptide). Conditions: 4 hours at 37° C, read-out: IC50 for inhibiting MEK kinase (MEK1). The test is classed as biochemical. The method, then:
MEK1 kinase activity was tested in vitro by the following method.
MEK kinase used in the assay: MEK1 (Recombinant Human Protein, Invitrogen, Catalog No. PV3093).
Kit used in the assay: Z′-LYTE™ Kinase Assay Kit-Ser/Thr 03 Peptide (Invitrogen, Catalog No. PV3176).
The following in vitro assay was used to determine the activity of the compounds of the present invention for inhibiting the […] MEK kinase. The test compound was dissolved in dimethyl sulfoxide to the desired concentration. 1× Buffer A (Invitrogen, Catalog No. PV3189) was prepared, ATP was diluted with 1× Buffer A to obtain 400 μM ATP solution, appropriate amounts of Z′-LYTE™ Ser/Thr 03 Peptide (Invitrogen, Catalog No. PV3200), MEK kinase (MEK1) Enzymes and 1× Buffer A were mixed, and appropriate amounts of Z′-LYTE™ Ser/Thr 03 phosphoPeptide substrate (Invitrogen, Catalog No. PV3215) and 1× Buffer A were formulated into a mixture to be tested. The 4% DMSO solution of the test compound was prepared from 1× buffer and DMSO solution of the test compound. 2.5 μL DMSO solution of the test compound was added to a reaction well, and then 1× Buffer A, 2.5 μL of 400 μM ATP solution, 5 μL of enzyme and substrate mixture were added to become a 10 μL of reaction system. The reaction system was incubated for 4 hours at 37° C., and a mixture was prepared according to Reagent A:Buffer B=1:1024. 5 μL of a mixture of Reagent A (Invitrogen, Catalog No. PV3295) and Buffer B (Invitrogen, Catalog No. P3127) was added to a reaction well, the reaction system was incubated for 60 minutes at 25° C. The fluorescence was read by a NovoStar ELISA with excitation wavelength: 400 nm, and emission wavelength: 445 nm and 520 nm.
The activity of the compounds of the present invention: The above assay was used to determine the biochemical activity of the compounds of the present invention for inhibiting MEK kinase (MEK1).

In test [8] the test system is Colo205 cell. Nature of the test: Proliferation inhibition on Colo205 (CCK8). The class given is cell-based. Conditions: Homo sapiens, COLO 205, Colo205, 72 hours. The source says: Cell line used in the assay: Colo205 (Cell Bank of the Chinese Academy of Sciences, Catalog No. TCHu102).
The following in vitro cell assay is to determine the activity of the compounds of the present invention for inhibiting the proliferation of human colon cancer cell, and the activity is expressed as IC50. General programs of this kind of assay were as follows: First, the cell line to be tested (purchased from Cell Bank of the Chinese Academy of Sciences) was inoculated in a 96-well culture plate with a suitable cell concentration of 4000 cells/mL medium, and was cultured in a carbon dioxide incubator at 37° C., then grown overnight. The medium was replaced by new medium added with a series of concentrations (10000 nM, 1000 nM, 100 nM, 10 nM, 1 nM, 0.1 nM) of the test compound solutions. The plates were placed back in the incubator, and continuously cultured for 72 hours. After 72 hours, CCK8 (Cell Counting Kit-8, Catalog No.: CK04, purchased from colleagues chemical company) method was used to determine the proliferation inhibition activity of the test compounds. IC50 values were calculated from the inhibition data of the test compounds at a series of different concentrations.
The above assay was used to determine the biochemical activity of the compounds of the present invention.

Bounds are passed on as bounds.

One may read the IC50 as the concentration needed to halve the response being measured.

T6 sequence (Q02750 whole entry): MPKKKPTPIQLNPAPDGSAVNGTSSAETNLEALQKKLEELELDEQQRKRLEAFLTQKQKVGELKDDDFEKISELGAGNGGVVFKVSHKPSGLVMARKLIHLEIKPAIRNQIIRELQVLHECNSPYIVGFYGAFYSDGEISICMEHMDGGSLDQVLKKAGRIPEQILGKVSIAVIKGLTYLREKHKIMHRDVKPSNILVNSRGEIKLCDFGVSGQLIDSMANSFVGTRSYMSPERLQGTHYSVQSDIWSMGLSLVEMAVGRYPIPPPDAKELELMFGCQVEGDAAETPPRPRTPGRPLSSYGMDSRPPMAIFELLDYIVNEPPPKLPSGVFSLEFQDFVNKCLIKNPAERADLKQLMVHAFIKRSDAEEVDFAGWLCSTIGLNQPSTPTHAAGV
T3 sequence (P33261 whole entry): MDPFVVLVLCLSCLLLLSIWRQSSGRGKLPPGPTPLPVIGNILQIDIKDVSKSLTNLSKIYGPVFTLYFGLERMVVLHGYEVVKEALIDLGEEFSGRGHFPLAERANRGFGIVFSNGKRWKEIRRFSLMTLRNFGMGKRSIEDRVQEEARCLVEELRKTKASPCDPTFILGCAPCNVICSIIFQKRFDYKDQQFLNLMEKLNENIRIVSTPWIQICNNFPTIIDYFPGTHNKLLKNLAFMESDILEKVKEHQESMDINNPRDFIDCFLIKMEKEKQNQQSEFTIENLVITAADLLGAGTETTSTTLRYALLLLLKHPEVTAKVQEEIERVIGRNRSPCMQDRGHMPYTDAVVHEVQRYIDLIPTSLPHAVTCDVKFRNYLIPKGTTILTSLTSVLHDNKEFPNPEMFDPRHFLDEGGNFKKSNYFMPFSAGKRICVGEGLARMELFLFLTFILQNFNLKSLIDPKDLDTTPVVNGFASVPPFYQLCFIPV
T2 sequence (P08684 whole entry): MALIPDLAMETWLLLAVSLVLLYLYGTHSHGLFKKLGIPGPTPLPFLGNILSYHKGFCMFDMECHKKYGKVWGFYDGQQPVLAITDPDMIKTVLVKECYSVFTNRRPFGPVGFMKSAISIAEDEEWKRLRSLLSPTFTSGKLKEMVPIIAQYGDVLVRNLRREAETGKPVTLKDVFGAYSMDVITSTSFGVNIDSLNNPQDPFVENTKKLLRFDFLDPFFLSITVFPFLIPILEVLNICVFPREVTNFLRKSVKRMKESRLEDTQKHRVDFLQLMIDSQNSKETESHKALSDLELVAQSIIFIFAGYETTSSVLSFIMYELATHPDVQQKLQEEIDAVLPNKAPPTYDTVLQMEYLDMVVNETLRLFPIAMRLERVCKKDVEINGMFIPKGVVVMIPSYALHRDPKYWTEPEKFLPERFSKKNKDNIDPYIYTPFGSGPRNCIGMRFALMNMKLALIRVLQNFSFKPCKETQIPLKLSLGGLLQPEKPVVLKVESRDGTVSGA
T4 sequence (P08684 whole entry): as above
CYP2C6, sequence (P10635 whole entry): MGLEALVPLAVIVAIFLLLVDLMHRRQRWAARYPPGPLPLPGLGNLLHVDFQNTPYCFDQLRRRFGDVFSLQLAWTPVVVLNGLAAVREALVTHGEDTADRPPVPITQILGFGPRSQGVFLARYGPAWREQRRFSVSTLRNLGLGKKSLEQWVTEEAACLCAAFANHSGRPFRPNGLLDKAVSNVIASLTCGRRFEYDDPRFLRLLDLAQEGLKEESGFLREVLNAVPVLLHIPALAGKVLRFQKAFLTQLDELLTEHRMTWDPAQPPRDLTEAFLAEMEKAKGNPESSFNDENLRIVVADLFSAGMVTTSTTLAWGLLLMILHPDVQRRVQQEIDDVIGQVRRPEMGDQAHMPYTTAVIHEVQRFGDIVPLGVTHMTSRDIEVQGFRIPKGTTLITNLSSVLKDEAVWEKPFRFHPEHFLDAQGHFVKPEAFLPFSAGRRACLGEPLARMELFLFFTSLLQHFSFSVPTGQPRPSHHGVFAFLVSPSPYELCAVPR
T5 sequence (P11712 whole entry): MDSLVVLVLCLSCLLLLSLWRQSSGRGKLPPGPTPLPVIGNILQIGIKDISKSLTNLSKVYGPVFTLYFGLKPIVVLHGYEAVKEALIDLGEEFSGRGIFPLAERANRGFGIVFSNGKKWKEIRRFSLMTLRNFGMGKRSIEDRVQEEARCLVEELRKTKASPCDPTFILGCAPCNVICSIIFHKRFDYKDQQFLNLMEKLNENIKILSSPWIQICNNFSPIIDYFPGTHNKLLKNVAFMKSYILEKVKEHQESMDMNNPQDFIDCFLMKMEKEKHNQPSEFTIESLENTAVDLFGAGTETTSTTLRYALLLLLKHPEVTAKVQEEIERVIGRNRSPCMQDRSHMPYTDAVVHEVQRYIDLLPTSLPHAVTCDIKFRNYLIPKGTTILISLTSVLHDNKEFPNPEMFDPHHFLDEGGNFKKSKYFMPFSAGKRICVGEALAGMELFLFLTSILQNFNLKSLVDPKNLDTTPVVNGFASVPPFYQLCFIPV

`Cc1cncc(Oc2cc(=O)n(C)c(Nc3ccc(I)cc3F)c2C(N)=O)c1` [Example 30, 2-((2-fluoro-4-iodophenyl)amino)-1-methyl-4-((5-methylpyridin-3-yl)oxy)-6-oxo-1,6-dihydropyridine-3-carboxamide]: the IC50 in test [1], in test [2], in test [3], in test [4], in test [5] and in test [6] was greater than 10000 nM throughout. In addition, the IC50 in test [7] amounted to 6 nM.

As for `Cc1cccc(Oc2cc(=O)n(C)c(Nc3ccc(I)cc3F)c2C(N)=O)c1F` [Example 19, 4-(2-fluoro-3-methylphenoxy)-2-((2-fluoro-4-iodophenyl)amino)-1-methyl-6-oxo-1,6-dihydropyridine-3-carboxamide], the IC50 in test [8] came to 0.8 nM; in test [7], 5.8 nM.

As to `CC(=O)Nc1cccc(Oc2cc(=O)n(C)c(Nc3ccc(I)cc3F)c2C(N)=O)c1C` [Example 4, 4-(3-acetamido-2-methylphenoxy)-2-((2-fluoro-4-iodophenyl)amino)-1-methyl-6-oxo-1,6-dihydropyridine-3-carboxamide], the IC50 in test [1] is greater than 10000 nM; in test [2], greater than 50000 nM; in test [3], greater than 10000 nM; in test [4] it was greater than 50000 nM; in test [5], greater than 50000 nM; in test [6], greater than 50000 nM. Besides, the IC50 in test [8] worked out at 0.8 nM; in test [7], 4 nM.

On to `Cc1c(O)cccc1Oc1cc(=O)n(C)c(Nc2ccc(I)cc2F)c1C(N)=O` [Example 24, 4-(3-hydroxy-2-methylphenoxy)-2-((2-fluoro-4-iodophenyl)amino)-1-methyl-6-oxo-1,6-dihydropyridine-3-carboxamide], for which the IC50 in test [8] worked out at 3.1 nM; in test [7], 4 nM.

As to `CNC(=O)c1cccc(Oc2cc(=O)n(C)c(Nc3ccc(I)cc3F)c2C(N)=O)c1C` [Example 10, 4-(2-methyl-3-(methylcarbamoyl)phenoxy)-2-((2-fluoro-4-iodophenyl)amino)-1-methyl-6-oxo-1,6-dihydropyridine-3-carboxamide], the concentration for half-maximal inhibition (IC50) in test [8] came to 4.3 nM; in test [7] it was 6.3 nM.

With `Cc1ccc(Oc2cc(=O)n(C)c(Nc3ccc(I)cc3F)c2C(N)=O)c(C)c1` [Example 20, 4-(2,4-dimethylphenoxy)-2-((2-fluoro-4-iodophenyl)amino)-1-methyl-6-oxo-1,6-dihydropyridine-3-carboxamide], the half-inhibitory concentration (IC50) in test [8] worked out at 1.7 nM; in test [7] it was 2.9 nM.

`Cc1c(Oc2cc(=O)n(C)c(Nc3ccc(I)cc3F)c2C(N)=O)cccc1O[C@@H]1CCOC1` [Example 12, (R)-2-((2-fluoro-4-iodophenyl)amino)-1-methyl-4-(2-methyl-3-((tetrahydrofuran-3-yl)oxy)phenoxy)-6-oxo-1,6-dihydropyridine-3-carboxamide]: the values for the IC50 in test [8] and in test [7] were 0.7 nM and 5.1 nM, respectively.
